Laboratory results reported in PMC8213057, “Targeting ALK2: An Open Science Approach to Developing Therapeutics for the Treatment of Diffuse Intrinsic Pontine Glioma” (Journal of Medicinal Chemistry, 2020).
Several values for one entry are separate records, joined by “and”; a condition that tells them apart may be missing. Equal values may be shown once. Read-outs that look alike come from different tables or passages of the source.

Tests used:
FMS = target: T1, FMS (Homo sapiens, UniProt P07333); test: 375-member kinase panel; format: biochemical; conditions: Run 1, Run 2; for % enzyme activity: 1 μM; for remaining activity at 1 µM: read-out: % enzyme activity, 1 μM
T1 construct: purchased Reaction Biology Corporation

CYP3A4 = CYP3A4 (Homo sapiens, UniProt P08684); conditions: human liver microsomes
DCAMKL2 = target: T2, DCAMKL2 (Homo sapiens, UniProt Q8N568); conditions: 1 μM; Run 1, Run 2
T2 sequence (Q8N568 1-766): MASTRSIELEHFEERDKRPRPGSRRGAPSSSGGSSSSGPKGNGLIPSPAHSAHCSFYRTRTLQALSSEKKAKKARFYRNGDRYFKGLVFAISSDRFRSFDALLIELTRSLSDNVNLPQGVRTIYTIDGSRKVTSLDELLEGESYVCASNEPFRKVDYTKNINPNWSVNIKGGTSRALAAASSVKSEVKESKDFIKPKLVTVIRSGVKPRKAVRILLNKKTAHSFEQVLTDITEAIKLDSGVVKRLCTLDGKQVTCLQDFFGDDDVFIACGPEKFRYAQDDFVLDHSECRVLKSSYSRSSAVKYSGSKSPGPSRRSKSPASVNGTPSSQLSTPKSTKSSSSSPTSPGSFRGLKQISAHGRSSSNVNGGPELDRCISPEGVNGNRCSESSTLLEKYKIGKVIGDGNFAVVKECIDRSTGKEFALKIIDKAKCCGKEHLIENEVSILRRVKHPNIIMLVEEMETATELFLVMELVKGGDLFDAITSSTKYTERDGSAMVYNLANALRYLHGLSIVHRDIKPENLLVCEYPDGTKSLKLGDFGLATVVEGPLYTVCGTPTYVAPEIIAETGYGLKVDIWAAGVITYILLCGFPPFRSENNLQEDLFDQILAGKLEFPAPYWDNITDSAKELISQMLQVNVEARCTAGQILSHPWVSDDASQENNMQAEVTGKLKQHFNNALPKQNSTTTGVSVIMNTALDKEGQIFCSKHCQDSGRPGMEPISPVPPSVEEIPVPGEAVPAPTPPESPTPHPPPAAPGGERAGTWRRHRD

ERN1/IRE1 = ERN1/IRE1 (Homo sapiens, UniProt O75460); conditions: 1 μM; Run 1, Run 2
MARK1 = MARK1 (Homo sapiens, UniProt Q9P0L2); conditions: 1 μM; Run 1, Run 2
PKG1b = target: T3, PKG1b (Homo sapiens, UniProt Q13976); conditions: 1 μM; Run 1, Run 2
T3 sequence (Q13976 1-686 isoform Q13976-2): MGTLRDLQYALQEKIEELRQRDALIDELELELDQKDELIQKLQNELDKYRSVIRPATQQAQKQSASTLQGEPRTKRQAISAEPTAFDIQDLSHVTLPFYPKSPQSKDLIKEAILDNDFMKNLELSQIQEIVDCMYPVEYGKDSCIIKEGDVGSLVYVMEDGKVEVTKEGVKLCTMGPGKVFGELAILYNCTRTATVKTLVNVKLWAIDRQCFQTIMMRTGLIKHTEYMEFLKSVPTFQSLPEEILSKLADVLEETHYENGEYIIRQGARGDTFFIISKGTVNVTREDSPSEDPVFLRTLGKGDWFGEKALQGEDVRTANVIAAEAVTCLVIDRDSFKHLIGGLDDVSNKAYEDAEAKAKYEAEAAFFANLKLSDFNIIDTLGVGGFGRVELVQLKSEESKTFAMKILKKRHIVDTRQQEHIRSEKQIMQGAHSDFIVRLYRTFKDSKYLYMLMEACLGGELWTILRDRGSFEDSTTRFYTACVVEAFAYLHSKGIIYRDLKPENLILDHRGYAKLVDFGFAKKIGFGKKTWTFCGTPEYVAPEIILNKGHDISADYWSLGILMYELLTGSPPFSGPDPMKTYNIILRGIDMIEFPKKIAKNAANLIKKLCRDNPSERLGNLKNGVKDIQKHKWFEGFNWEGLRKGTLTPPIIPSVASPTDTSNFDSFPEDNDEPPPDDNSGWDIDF

TAK1 = target: T4, TAK1 (Homo sapiens, UniProt O43318); conditions: 1 μM; Run 1, Run 2
T4 sequence (O43318 1-303 limits assumed): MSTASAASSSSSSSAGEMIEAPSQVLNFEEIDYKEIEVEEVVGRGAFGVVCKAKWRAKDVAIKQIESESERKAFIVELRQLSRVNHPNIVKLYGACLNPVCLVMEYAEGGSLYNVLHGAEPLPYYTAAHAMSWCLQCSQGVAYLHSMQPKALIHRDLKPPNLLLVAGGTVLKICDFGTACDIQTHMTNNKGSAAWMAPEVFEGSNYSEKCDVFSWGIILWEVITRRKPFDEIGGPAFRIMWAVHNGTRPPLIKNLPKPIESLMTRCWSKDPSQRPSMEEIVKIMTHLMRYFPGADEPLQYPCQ

CDK2/cyclin O = CDK2/cyclin O (Homo sapiens, UniProt P24941); test: biochemical; conditions: read-out: % enzyme activity, 1 μM; Run 1, Run 2
EPHA4 = EPHA4 (Homo sapiens, UniProt P54764); test: biochemical; conditions: read-out: % enzyme activity, 1 μM; Run 1, Run 2
LYN B = LYN B (Homo sapiens, UniProt P07948); test: biochemical; conditions: read-out: % enzyme activity, 1 μM; Run 1, Run 2
PBK/TOPK = target: T5, PBK/TOPK (Homo sapiens, UniProt Q96KB5); test: biochemical; conditions: read-out: % enzyme activity, 1 μM; Run 1, Run 2
T5 sequence (Q96KB5 1-322): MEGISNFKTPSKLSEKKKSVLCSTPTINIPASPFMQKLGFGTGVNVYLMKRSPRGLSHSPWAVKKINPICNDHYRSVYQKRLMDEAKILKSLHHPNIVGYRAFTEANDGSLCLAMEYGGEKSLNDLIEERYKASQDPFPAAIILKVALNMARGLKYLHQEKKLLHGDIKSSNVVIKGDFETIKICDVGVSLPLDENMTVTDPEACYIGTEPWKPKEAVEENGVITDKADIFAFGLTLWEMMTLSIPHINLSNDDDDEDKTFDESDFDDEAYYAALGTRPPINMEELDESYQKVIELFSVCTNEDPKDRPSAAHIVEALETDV

SBK1 = SBK1 (Homo sapiens, UniProt Q52WX2); test: biochemical; conditions: read-out: % enzyme activity, 1 μM; Run 1, Run 2
[1] = read-out: CYP3A4-Midazolam IC50, substrate midazolam
[2] = read-out: CYP3A4-Testosterone IC50, substrate testosterone

T1 sequence (P07333 20-972): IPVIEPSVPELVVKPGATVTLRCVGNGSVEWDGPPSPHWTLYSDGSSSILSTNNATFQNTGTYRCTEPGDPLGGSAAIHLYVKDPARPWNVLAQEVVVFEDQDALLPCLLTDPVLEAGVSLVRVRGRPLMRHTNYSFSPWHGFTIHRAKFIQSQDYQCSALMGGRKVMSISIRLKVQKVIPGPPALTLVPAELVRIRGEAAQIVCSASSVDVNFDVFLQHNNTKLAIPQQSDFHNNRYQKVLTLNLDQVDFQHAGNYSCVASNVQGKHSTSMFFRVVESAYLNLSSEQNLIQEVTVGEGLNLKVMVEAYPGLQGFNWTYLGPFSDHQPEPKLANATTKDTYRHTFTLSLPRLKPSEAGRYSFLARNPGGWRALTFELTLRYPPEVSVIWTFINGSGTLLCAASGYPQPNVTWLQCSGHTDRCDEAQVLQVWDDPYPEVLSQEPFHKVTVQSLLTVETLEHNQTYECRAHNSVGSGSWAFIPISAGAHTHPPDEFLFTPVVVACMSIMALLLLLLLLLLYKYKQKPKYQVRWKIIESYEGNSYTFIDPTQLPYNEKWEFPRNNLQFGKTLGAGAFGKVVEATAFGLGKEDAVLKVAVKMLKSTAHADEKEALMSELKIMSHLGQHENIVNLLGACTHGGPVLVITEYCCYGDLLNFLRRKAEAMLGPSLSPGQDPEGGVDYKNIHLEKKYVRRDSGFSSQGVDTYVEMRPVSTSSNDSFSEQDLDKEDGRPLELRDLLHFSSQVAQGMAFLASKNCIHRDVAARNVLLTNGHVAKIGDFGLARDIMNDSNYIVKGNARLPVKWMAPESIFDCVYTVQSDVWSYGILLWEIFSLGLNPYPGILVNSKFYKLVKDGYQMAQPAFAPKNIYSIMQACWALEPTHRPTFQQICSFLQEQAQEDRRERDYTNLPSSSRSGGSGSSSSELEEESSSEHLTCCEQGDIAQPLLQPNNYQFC
CYP3A4, sequence (P08684 whole entry): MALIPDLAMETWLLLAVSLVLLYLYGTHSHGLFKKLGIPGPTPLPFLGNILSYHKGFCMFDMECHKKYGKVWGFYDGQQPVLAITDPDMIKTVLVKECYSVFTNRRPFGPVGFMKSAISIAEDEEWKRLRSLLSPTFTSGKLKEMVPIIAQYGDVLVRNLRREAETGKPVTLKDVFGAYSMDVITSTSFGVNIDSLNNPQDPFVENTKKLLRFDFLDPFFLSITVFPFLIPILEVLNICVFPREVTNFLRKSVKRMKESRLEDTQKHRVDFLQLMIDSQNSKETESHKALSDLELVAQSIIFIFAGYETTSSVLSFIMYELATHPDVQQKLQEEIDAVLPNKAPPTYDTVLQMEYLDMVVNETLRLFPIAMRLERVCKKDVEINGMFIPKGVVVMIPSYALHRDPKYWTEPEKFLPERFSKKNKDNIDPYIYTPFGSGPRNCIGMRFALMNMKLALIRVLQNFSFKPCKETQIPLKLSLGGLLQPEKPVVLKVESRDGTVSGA
SBK1, sequence (Q52WX2 whole entry): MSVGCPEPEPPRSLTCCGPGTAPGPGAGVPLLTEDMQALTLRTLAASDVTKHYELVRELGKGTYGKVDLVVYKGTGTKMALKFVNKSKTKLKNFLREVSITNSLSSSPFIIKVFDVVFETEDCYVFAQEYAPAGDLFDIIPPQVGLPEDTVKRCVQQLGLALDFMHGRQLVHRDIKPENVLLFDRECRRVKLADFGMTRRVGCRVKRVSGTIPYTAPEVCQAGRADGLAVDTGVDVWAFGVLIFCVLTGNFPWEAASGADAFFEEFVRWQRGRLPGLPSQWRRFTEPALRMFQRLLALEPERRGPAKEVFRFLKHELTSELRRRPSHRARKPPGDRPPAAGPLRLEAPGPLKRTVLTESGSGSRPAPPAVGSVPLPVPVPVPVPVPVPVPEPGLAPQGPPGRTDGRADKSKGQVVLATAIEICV
EPHA4, sequence (P54764 20-986): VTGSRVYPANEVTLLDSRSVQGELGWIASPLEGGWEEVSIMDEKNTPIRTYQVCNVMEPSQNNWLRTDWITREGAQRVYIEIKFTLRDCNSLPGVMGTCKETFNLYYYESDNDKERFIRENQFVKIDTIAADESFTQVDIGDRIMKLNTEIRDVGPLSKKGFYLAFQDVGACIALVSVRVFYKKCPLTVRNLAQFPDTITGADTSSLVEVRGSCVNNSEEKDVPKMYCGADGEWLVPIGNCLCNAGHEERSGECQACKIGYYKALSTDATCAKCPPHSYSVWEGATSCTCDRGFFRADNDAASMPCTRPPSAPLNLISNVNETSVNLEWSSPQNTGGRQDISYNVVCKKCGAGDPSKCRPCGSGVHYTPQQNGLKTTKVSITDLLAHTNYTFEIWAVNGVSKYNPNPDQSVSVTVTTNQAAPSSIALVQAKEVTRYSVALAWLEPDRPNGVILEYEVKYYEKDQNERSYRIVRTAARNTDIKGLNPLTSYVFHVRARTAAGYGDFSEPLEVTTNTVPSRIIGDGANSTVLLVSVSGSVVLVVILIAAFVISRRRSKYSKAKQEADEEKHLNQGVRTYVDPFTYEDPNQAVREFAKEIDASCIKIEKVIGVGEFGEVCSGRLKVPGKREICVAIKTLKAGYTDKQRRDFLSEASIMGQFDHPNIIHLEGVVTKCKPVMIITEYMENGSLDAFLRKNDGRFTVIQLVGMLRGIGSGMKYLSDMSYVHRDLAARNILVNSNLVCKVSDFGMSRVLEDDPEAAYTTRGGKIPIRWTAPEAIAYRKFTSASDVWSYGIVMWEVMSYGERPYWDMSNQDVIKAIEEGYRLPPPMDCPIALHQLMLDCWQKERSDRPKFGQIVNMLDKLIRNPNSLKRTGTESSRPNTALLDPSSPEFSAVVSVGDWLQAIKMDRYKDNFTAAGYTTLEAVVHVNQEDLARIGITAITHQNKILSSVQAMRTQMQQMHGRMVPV
LYN B, sequence (P07948 1-491 isoform P07948-2): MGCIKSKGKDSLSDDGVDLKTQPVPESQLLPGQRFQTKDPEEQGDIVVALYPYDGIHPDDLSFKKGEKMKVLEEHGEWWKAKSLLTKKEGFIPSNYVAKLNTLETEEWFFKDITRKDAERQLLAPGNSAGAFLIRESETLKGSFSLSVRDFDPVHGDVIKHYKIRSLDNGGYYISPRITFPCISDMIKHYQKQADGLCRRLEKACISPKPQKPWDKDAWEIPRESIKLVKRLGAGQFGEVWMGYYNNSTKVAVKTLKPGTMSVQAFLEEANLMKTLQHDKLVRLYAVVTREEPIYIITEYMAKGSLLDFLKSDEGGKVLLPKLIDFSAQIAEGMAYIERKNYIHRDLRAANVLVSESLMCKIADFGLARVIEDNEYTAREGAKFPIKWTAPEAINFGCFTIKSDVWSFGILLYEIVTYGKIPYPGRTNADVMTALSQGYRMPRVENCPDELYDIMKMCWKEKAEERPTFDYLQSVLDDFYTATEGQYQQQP
MARK1, sequence (Q9P0L2 whole entry): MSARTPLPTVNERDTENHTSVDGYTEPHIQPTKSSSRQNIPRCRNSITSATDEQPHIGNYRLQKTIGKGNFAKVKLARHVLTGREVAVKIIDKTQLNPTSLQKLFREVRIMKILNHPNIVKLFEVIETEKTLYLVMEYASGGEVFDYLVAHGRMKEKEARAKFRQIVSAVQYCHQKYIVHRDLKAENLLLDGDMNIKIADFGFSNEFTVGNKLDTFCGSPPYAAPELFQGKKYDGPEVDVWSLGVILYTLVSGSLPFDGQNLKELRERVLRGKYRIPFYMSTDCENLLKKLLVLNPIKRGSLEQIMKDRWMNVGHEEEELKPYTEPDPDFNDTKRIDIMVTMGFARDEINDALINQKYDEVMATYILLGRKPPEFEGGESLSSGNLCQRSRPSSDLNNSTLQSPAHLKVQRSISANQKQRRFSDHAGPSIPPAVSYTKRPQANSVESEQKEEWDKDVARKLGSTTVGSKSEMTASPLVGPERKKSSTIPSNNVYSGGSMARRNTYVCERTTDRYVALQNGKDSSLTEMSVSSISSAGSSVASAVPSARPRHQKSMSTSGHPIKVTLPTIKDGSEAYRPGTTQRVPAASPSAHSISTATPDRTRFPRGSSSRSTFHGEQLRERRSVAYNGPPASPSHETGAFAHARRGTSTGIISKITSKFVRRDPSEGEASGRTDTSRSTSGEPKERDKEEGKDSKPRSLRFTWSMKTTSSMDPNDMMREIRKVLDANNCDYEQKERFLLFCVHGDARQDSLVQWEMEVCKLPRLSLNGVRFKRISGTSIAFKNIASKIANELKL

In the case of `COc1cc(-c2cncc(-c3ccc(N4CCN(C)CC4)cc3)c2C)cc(F)c1C(N)=O` [Compound 26a, 2-Fluoro-6-methoxy-4-(4-methyl-5-(4-(4-methylpiperazin-1-yl)phenyl)pyridin-3-yl)benzamide], the % enzyme activity at 1 μM (DDR1) is reported as 32.1% and 31.2%, the “% enzyme activity” value (FMS) is reported as 75.66% and the remaining activity at 1 µM (FMS) is reported as 82.2%. The IC50 (CYP3A4; [1]) was > 50 µM, the IC50 (CYP3A4; [2]) was > 50 µM and the “% enzyme activity” value (DCAMKL2) was 62.07%. The “% enzyme activity” value (ERN1/IRE1) was 92.47%, the “% enzyme activity” value (MARK1) was 87.63% and the “% enzyme activity” value (PKG1b) was 98.83%. The “% enzyme activity” value (TAK1) was 97.44%, the remaining activity at 1 µM (CDK2/cyclin O) was 95.1% and the remaining activity at 1 µM (EPHA4) was 95.3%. For the same molecule, the remaining activity at 1 µM (LYN B) was 99.2%, the remaining activity at 1 µM (PBK/TOPK) was 91.8% and the remaining activity at 1 µM (SBK1) was 94.6%.
With `COc1cc(-c2cncc(-c3ccc(N4C[C@@H](C)N(C)[C@@H](C)C4)cc3)c2C)cc(F)c1C(N)=O` [Compound 26c, 2-Fluoro-6-methoxy-4-(4-methyl-5-(4-((3R,5S)-3,4,5-trimethylpiperazin-1-yl)phenyl)pyridin-3-yl)benzamide] the % enzyme activity at 1 μM (DDR1) was 57.2% and 55.5%, the “% enzyme activity” value (FMS) was 78.83% and the remaining activity at 1 µM (FMS) was 79.5%. The IC50 (CYP3A4; [1]) was > 50 µM, the IC50 (CYP3A4; [2]) was > 50 µM and the “% enzyme activity” value (DCAMKL2) was 82.24%. For the same molecule, the “% enzyme activity” value (ERN1/IRE1) was 90.44%, the “% enzyme activity” value (MARK1) was 89.90% and the “% enzyme activity” value (PKG1b) was 96.31%. The “% enzyme activity” value (TAK1) was 98.46%, the remaining activity at 1 µM (CDK2/cyclin O) was 92.7% and the remaining activity at 1 µM (EPHA4) was 99.3%. It also gave a remaining activity at 1 µM (LYN B) of 98.2%, a remaining activity at 1 µM (PBK/TOPK) of 103% and a remaining activity at 1 µM (SBK1) of 103%.
